Reference: article PMC9006213, “Multifunctional, Multivalent PIC Polymer Scaffolds for Targeting Antigen-Specific, Autoreactive B Cells” (ACS Biomaterials Science & Engineering, 2022)

Assays:
[1] = tested on: B-cell compartments; conditions: clinical use; cited from earlier work
Source text: These autoreactive MBCs likely exert pathogenic effector functions through the co-stimulation of T cells, the production of pro-inflammatory cytokines, and the recruitment of neutrophils to sites of the local inflammation.[1] The involvement of these cells in the inflammatory disease process is addi ...

[2] = tested on: patient-derived ACPA and immortalized ACPA-expressing B cells; conditions: cited from earlier work
Source text: To study the application of PICs for the detection of ACPA-expressing B cells, we prepared a set of fluorescently labeled PICs containing CCP and arginine-containing control peptides (CArgP, Figure 1B), as well as tetrameric CCP-SA and CArgP-SA containing the same fluorophores (Figure 1C).[15] […] In CArgP, the citrulline residue that is essential for recognition by ACPA is replaced by an arginine. Besides the ...

[3] = tested on: ACPA-expressing B cells in peripheral blood of RA patients; experiment: Identification and immunophenotyping of primary ACPA-expressing B cells in peripheral blood of RA patients; format: cell-based, human; conditions: median; n = 5; PICs and SA tetramer
Experimental: Having determined the specificity of CCP-PIC-AF647 and its ability to detect small subpopulations of B cells, we used the combination of PICs to identify and characterize the primary ACPA-expressing B cells in the peripheral blood of five RA patients. […] The median frequency was determined at approximately 0.007% cells out of total B cells (Figure 5A,B). To assess whether the characteristics of the patient’s ACPA-expressing B cells were consistent with previous data, we also examined various B-cell subset-defining markers such as CD20, CD27, IgG-class B-cell receptors, and the activation surface marker CD80 (Figure 5B).
Each dot represents one patient sample. Connected dots depict data from individual patient samples. Statistical differences between groups were determined using the Wilcoxon test. (ns, p > 0.05).
To identify and characterize ACPA-expressing B cells in RA blood, PBMC were isolated from peripheral blood of RA donors as above.
For stimulation experiments, ACPA-expressing Ramos B cells were used. Ramos cells were transduced with ACPA-encoding lentiviral vectors 8. Ramos cells were cultured in RPMI 1640 (Thermofisher) supplemented with 8% FCS, 100 U/ml PS, 2 mM GlutaMax and 10 mM HEPES).
To determine which ratio of CCP and fluorophore in PIC to use, two ratios of CCP-AF647 were tested, i.e. 10:1 and 2:1. […]

Substance: Rituximab: broadly B-cell depleting agent approved for clinical use
- depletion of B-cell compartments [1]: depletes the naïve and MBC compartments but leaves the compartment of antibody-secreting cells largely intact

Substance: cyclic citrullinated peptide [CCP]
- recognition by ACPA and ACPA-expressing B cells [2]: recognized by both patient-derived ACPA and immortalized ACPA-expressing B cells

Substance: polyisocyanopeptides [PICs]
- ACPA-expressing B cells positive for memory B cell markers CD20 and CD27 [3]: 50%
